Where two headings read alike, the source gives them in different places.
Key:
[1] = test system: healthy subjects; assay: CYP3A inhibitors study Cohort 1: safety assessments; assay type: in vivo, human; conditions: of 14 subjects, by treatment period
[2] = 12 healthy male subjects; single oral 2-mg doses of 14C-naldemedine; cited from earlier work
[3] = test system: healthy subjects; assay: CYP3A inhibitors study Cohort 2: safety assessments; assay type: in vivo, human; conditions: of 14 subjects, by treatment period
[4] = test system: healthy subjects; conditions: cited from earlier work
[5] = assay type: in vivo, human; conditions: for CL/F / AUC(0-inf) / AUC(0-t) / half-life / k el: Cohort 1: naldemedine 0.2 mg alone or with itraconazole 200 mg, n = 14; for AUC(0-inf): AUC0–inf; for AUC(0-t): AUC0–last; for half-life: t1/2,z; for k el: λz
[6] = test system: spontaneous bowel movements; conditions: cited from earlier work
[7] = assay type: in vivo, human
[8] = CYP3A inducer study: pharmacokinetics of naldemedine alone or with rifampin; assay type: in vivo, human; conditions: for AUC(0-inf): AUC0–inf; for AUC(0-t): AUC0–last; for half-life: t1/2,z; for k el: λz
[9] = assay type: in vivo, human; conditions: for CL/F / AUC(0-inf) / AUC(0-t) / half-life / k el: Cohort 2: naldemedine 0.2 mg alone or with fluconazole 200 mg, n = 14; for AUC(0-inf): AUC0–inf; for AUC(0-t): AUC0–last; for half-life: t1/2,z; for k el: λz
[10] = test system: healthy subjects; assay: P-gp inhibitor study: safety assessments; assay type: in vivo, human; conditions: of 13 subjects
[11] = test system: healthy subjects; assay: CYP3A inducer study: safety assessments; conditions: of 14 subjects; by treatment period
[12] = coadministration of itraconazole vs naldemedine 0.2 mg alone
[13] = human, plasma, oral, 0.2 mg, geometric mean (CV %)
[14] = human, plasma, oral, 0.2 mg, mean (SD)
[15] = coadministration of cyclosporine 600 mg vs naldemedine 0.4 mg alone
[16] = male, human, plasma, oral, 0.4 mg
[17] = male, human, plasma, po, 0.4 mg
[18] = coadministration of rifampin 600 mg QD vs naldemedine 0.2 mg alone
[19] = human, plasma, oral, 0.2 mg, naldemedine 0.2 mg alone or with rifampin 600 mg QD, n = 14, geometric mean (CV %)
[20] = human, plasma, oral, 0.2 mg, naldemedine 0.2 mg alone or with rifampin 600 mg QD, n = 14, mean (SD)
[21] = coadministration of fluconazole vs naldemedine 0.2 mg alone

With `CCC(C)n1ncn(-c2ccc(N3CCN(c4ccc(OCC5COC(Cn6cncn6)(c6ccc(Cl)cc6Cl)O5)cc4)CC3)cc2)c1=O` (stereo not drawn) [itraconazole, reference compound] as the compound, how does the “subjects with TEAEs” value [1] read?
Its value is 14.3%.

For `CC(C)(NC(=O)C1=C(O)[C@@H]2Oc3c(O)ccc4c3[C@@]23CCN[C@H](C4)[C@]3(O)C1)c1nc(-c2ccccc2)no1` [nor-naldemedine], which “share of the systemic exposure of unchanged naldemedine” value [2] is on record?
The value was 9–13%.

For `CC(C)(NC(=O)C1=C(O)[C@@H]2Oc3c(O)ccc4c3[C@@]23CCN(CC2CC2)[C@H](C4)[C@]3(O)C1)c1nc(-c2ccccc2)no1` [Naldemedine], which “subjects with TEAEs” value [3] is on record?
The value was 7.1%.

And the “dose linearity of pharmacokinetics” value ([4]; dose range of 0.2–0.4 mg)?
The value was “linear pharmacokinetics”.

What about the safety and tolerability ([4]; naldemedine doses of 0.1 to 100 mg, healthy subjects) of the same compound?
Its safety and tolerability is “safe and well tolerated”.

What about the CL/F ([5]; geometric mean (CV %)) of the same compound?
Its CL/F is 7.41 (37.7) L/h.

What about the CL/F ([5]; mean (SD)) of the same compound?
Its CL/F is 8.03 (4.39) L/h.

What about the “effect of coadministration on median naldemedine Tmax” value (from here on “effect of coadministration”) ([5]; coadministration of itraconazole) of the same compound?
Its value is “not notably affected”.

What about the “increase of naldemedine AUC0–inf” value [5, 12] of the same compound?
The value was 2.91 fold.

What about the “increase of naldemedine AUC0–last” value [5, 12] of the same compound?
Its value is 2.65 fold.

What about the “increase of naldemedine Cmax” value [5, 12] of the same compound?
The value was 1.12 fold.

And the Cmax ([5]; human, plasma, oral, 0.2 mg)?
The Cmax was 3.56 ng/mL.

And the Tmax ([5]; human, plasma, oral, 0.2 mg)?
The Tmax was 0.75 h.

And the AUC(0-inf) [5, 13]?
The AUC(0-inf) was 27 ng·h/mL.

What about the AUC(0-inf) [5, 14] of the same compound?
Its AUC(0-inf) is 28.3 ng·h/mL.

And the AUC(0-t) [5, 13]?
The AUC(0-t) was 26.7 ng·h/mL.

What about the AUC(0-t) [5, 14] of the same compound?
Its AUC(0-t) is 28.1 ng·h/mL.

What about the half-life [5, 13] of the same compound?
The half-life was 10.4 h.

And the half-life [5, 14]?
Its half-life is 10.7 h.

What about the k el [5, 13] of the same compound?
The k el was 1.85e-05 s⁻¹.

And the k el [5, 14]?
Its k el is 1.9e-05 s⁻¹.

And the Cmax ([5]; human, plasma, po, 0.2 mg)?
Its Cmax is 3.77 ng/mL.

What about the “subjects with TEAEs” value [1] of the same compound?
Its value is 7.1%.

What about the “clinical benefit compared with placebo” value ([6]; naldemedine 0.1 mg) of the same compound?
The value was “no significant differences”.

What about the “clinical benefit (spontaneous bowel movements) compared with placebo” value ([6]; naldemedine 0.2- and 0.4-mg doses) of the same compound?
The value was “significant clinical benefits”.

And the “effect of coadministration” value ([7]; coadministration of cyclosporine)?
Its value is “not notably affected”.

And the “increase of naldemedine AUC0–inf” value [7, 15]?
Its value is 1.78 fold.

And the “increase of naldemedine AUC0–last” value [7, 15]?
The value was 1.79 fold.

What about the “increase of naldemedine Cmax” value [7, 15] of the same compound?
The value was 1.45 fold.

And the AUC(0-inf) [7, 16]?
The AUC(0-inf) was 38.9 ng·h/mL.

What about the AUC(0-t) [7, 16] of the same compound?
The AUC(0-t) was 38.6 ng·h/mL.

And the Cmax [7, 16]?
Its Cmax is 4.86 ng/mL.

What about the half-life [7, 16] of the same compound?
Its half-life is 10.6 h.

What about the k el [7, 16] of the same compound?
The k el was 1.81e-05 s⁻¹.

And the AUC(0-inf) [7, 17]?
The AUC(0-inf) was 39.5 ng·h/mL.

And the AUC(0-t) [7, 17]?
The AUC(0-t) was 39.1 ng·h/mL.

What about the Cmax [7, 17] of the same compound?
Its Cmax is 4.9 ng/mL.

What about the Tmax [7, 17] of the same compound?
The Tmax was 0.75 h.

What about the half-life [7, 17] of the same compound?
Its half-life is 10.7 h.

What about the k el [7, 17] of the same compound?
Its k el is 1.82e-05 s⁻¹.

And the CL/F ([7]; naldemedine 0.4 mg alone or with cyclosporine 600 mg, n = 13, geometric mean (CV %))?
Its CL/F is 10.3 (17.3) L/h.

And the “effect of coadministration” value ([8]; coadministration of rifampin)?
Its value is “not notably affected”.

And the “decrease of naldemedine AUC0–last” value [8, 18]?
Its value is 83%.

What about the “decrease of naldemedine Cmax” value [8, 18] of the same compound?
Its value is 38%.

And the Cmax ([8]; human, plasma, oral, 0.2 mg)?
The Cmax was 2.72 ng/mL.

What about the Tmax ([8]; human, plasma, oral, 0.2 mg) of the same compound?
The Tmax was 1 h.

And the AUC(0-inf) [8, 19]?
The AUC(0-inf) was 21.8 ng·h/mL.

And the AUC(0-inf) [8, 20]?
The AUC(0-inf) was 22.1 ng·h/mL.

What about the AUC(0-t) [8, 19] of the same compound?
Its AUC(0-t) is 21.5 ng·h/mL.

What about the AUC(0-t) [8, 20] of the same compound?
The AUC(0-t) was 21.8 ng·h/mL.

And the half-life [8, 19]?
Its half-life is 11.7 h.

And the half-life [8, 20]?
The half-life was 11.9 h.

What about the k el [8, 19] of the same compound?
The k el was 1.64e-05 s⁻¹.

What about the k el [8, 20] of the same compound?
Its k el is 1.67e-05 s⁻¹.

And the Cmax ([8]; human, plasma, po, 0.2 mg)?
The Cmax was 2.8 ng/mL.

And the CL/F ([8]; naldemedine 0.2 mg alone or with rifampin 600 mg QD, n = 14, geometric mean (CV %))?
Its CL/F is 9.19 (19.2) L/h.

And the CL/F ([8]; naldemedine 0.2 mg alone or with rifampin 600 mg QD, n = 14, mean (SD))?
Its CL/F is 9.35 (1.86) L/h.

What about the Tmax ([8]; naldemedine 0.2 mg alone or with rifampin 600 mg QD, n = 14, median (range)) of the same compound?
The Tmax was 1.00 (0.50, 2.50) h.

What about the CL/F ([9]; geometric mean (CV %)) of the same compound?
The CL/F was 7.36 (16.5) L/h.

And the CL/F ([9]; mean (SD))?
Its CL/F is 7.45 (1.16) L/h.

What about the “effect of coadministration” value ([9]; coadministration of fluconazole) of the same compound?
Its value is “not notably affected”.

What about the “increase of naldemedine AUC0–inf” value [9, 21] of the same compound?
Its value is 1.90 fold.

And the “increase of naldemedine AUC0–last” value [9, 21]?
The value was 1.88 fold.

What about the “increase of naldemedine Cmax” value [9, 21] of the same compound?
The value was 1.38 fold.

And the Cmax ([9]; human, plasma, oral, 0.2 mg)?
Its Cmax is 3.48 ng/mL.

What about the Tmax ([9]; human, plasma, oral, 0.2 mg) of the same compound?
The Tmax was 1 h.

And the AUC(0-inf) [9, 13]?
Its AUC(0-inf) is 27.2 ng·h/mL.

And the AUC(0-inf) [9, 14]?
The AUC(0-inf) was 27.5 ng·h/mL.

What about the AUC(0-t) [9, 13] of the same compound?
Its AUC(0-t) is 26.9 ng·h/mL.

And the AUC(0-t) [9, 14]?
Its AUC(0-t) is 27.3 ng·h/mL.

And the half-life [9, 13]?
The half-life was 10.1 h.

And the half-life [9, 14]?
Its half-life is 10.4 h.

And the k el [9, 13]?
Its k el is 1.9e-05 s⁻¹.

And the k el [9, 14]?
The k el was 1.95e-05 s⁻¹.

And the Cmax ([9]; human, plasma, po, 0.2 mg)?
Its Cmax is 3.57 ng/mL.

And the “subjects with TEAEs” value ([10]; naldemedine 0.4 mg alone or plus cyclosporine 600 mg)?
The value was 7.7%.

And the “subjects with headache (TEAE)” value [10]?
Its value is 7.7%.

What about the “subjects with TEAEs” value [11] of the same compound?
The value was “no TEAEs”.

Source: PMC7242238 (Clinical Drug Investigation, 2020)
